Test results taken from patent publication US8440652B2, “MST1 kinase inhibitors and methods of their use” (Lexicon Pharmaceuticals, Inc., priority 2011, dated 2013).
Where two headings read alike, the source gives them in different places.

Target: T1, MST1 (Homo sapiens, UniProt Q13043)
T1 sequence (Q13043 1-487): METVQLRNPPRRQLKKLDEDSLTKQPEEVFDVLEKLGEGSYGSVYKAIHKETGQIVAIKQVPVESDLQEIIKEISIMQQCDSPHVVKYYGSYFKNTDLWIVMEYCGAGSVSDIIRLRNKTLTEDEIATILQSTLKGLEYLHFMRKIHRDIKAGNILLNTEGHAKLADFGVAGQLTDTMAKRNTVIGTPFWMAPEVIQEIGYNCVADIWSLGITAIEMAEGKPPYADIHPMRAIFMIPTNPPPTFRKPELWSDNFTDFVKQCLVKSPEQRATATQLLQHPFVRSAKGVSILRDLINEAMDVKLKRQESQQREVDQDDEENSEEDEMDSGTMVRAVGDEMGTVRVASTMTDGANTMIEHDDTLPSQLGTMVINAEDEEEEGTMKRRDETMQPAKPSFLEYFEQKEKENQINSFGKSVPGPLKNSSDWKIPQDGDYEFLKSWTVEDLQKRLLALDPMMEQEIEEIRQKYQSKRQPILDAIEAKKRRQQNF
Experiment: In vitro measurement of MST1 inhibition (Z′-Lyte kinase assay)
Format: biochemical
Procedure: Assays were performed in low-volume 384-well black proxiplates (Perkin Elmer, PE-Blk-Proxi-6008269). Eight compounds were first diluted into LDV (Echo) plates using a Multiprobe, at a starting concentration of 1 mM compound in 100% DMSO. Using the ECHO, 75 nl compound was pinged into 384-well proxiplates. The starting concentration of compound in each assay plate is 7.5 uM, followed by 3-fold dilutions, to give quadruplicate ten-point concentration curves. A 3× solution of MST1 enzyme in kinase buffer (Invitrogen, PR4940C) was added to wells containing compound or DMSO controls, followed by a 10 minute preincubation step. Reactions were initiated by adding 5 μL of a mixture of ATP and Z′-Lyte S/T Pep 7 (Invitrogen, PV3180) and proceeded at RT for 1 hour. […] At the end of the kinase reaction, 10 ul of developing solution (Invitrogen, catalog #PR4876B; development buffer A diluted […] in development buffer B) was added to each well and incubated at RT for 1 hr. All wells were read on a Tecan at 400 nm excitation and 460 nm/530 nm emission. Plus and minus enzyme controls were used to calculate percent inhibition and IC50 curves were generated using Excel.

[1] = 1 μM ATP, read-out: IC50 (μM) 1 μM ATP
[2] = 50 μM ATP, read-out: IC50 (μM) 50 μM ATP

IC50 [1] [µM]	IC50 [2] [µM]	SMILES
< 0.15	< 0.05	COC[C@H]1C[C@@H]1N(C)S(=O)(=O)c1ccc(-c2cnc(N)c(-c3ccc4c(c3)CCNC4=O)n2)nc1 [6-(5-amino-6-(1-oxo-1,2,3,4-tetrahydroisoquinolin-6-yl)pyrazin-2-yl)-N-((1S,2S)-2-(methoxymethyl)cyclopropyl)-N-methylpyridine-3-sulfonamide]
< 0.05	< 0.01	CCN(C1CC1)S(=O)(=O)c1ccc(-c2cnc(N)c(-c3ccc4c(c3)CCNC4=O)n2)cc1 [4-(5-amino-6-(1-oxo-1,2,3,4-tetrahydroisoquinolin-6-yl)pyrazin-2-yl)-N-cyclopropyl-N-ethylbenzenesulfonamide]
< 0.01	< 0.01	CC1(C)CNC(=O)c2ccc(-c3nc(-c4ccc(C5(C#N)CCOCC5)cc4)cnc3N)cc21 [4-(4-(5-amino-6-(4,4-dimethyl-1-oxo-1,2,3,4-tetrahydroisoquinolin-6-yl)pyrazin-2-yl)phenyl)tetrahydro-2H-pyran-4-carbonitrile]
–	< 0.15	CCN(CC)S(=O)(=O)c1ccc(-c2cnc(N)c(-c3ccc4c(O)n[nH]c4c3)c2)cc1 [4-(6-amino-5-(3-hydroxy-1H-indazol-6-yl)pyridin-3-yl)-N,N-diethylbenzenesulfonamide]
< 0.01	< 0.01	[2H]C1([2H])CNC(=O)c2ccc(-c3nc(-c4ccc(S(=O)(=O)NC5CC5)cc4)cnc3N)cc21 [4-(5-amino-6-(4,4-dideutero-1-oxo-1,2,3,4-tetrahydroisoquinolin-6-yl)pyrazin-2-yl)-N-cyclopropylbenzenesulfonamide]
< 0.01	< 0.01	CN(C1CC1)S(=O)(=O)c1ccc(-c2cnc(N)c(-c3ccc4c(c3)CCNC4=O)c2)nc1 [6′-amino-N-cyclopropyl-N-methyl-5′-(1-oxo-1,2,3,4-tetrahydroisoquinolin-6-yl)-[2,3′-bipyridine]-5-sulfonamide]
< 0.05	< 0.01	CNC(=O)N1CCc2cc(-c3nc(-c4ccc(S(=O)(=O)N(C)C5CC5)cc4)cnc3N)ccc21 [5-(3-amino-6-(4-(N-cyclopropyl-N-methylsulfamoyl)phenyl)pyrazin-2-yl)-N-methylindoline-1-carboxamide]
< 0.05	< 0.05	Nc1ncc(-c2ccc(F)cc2)cc1-c1cc2c(cn1)C(=O)NCC2 [6-(2-amino-5-(4-fluorophenyl)pyridin-3-yl)-3,4-dihydro-2,7-naphthyridin-1(2H)-one]
< 0.01	< 0.01	CN(C1CC1)S(=O)(=O)c1ccc(-c2cnc(N)c(-c3ccc4c(c3)C(C)(C)NC4=O)c2)cc1 [4-(6-amino-5-(3,3-dimethyl-1-oxoisoindolin-5-yl)pyridin-3-yl)-N-cyclopropyl-N-methylbenzenesulfonamide]
< 0.01	< 0.01	CCN(C)S(=O)(=O)c1ccc(-c2cnc(N)c(-c3ccc4c(c3)CCNC4=O)n2)nc1 [6-(5-amino-6-(1-oxo-1,2,3,4-tetrahydroisoquinolin-6-yl)pyrazin-2-yl)-N-ethyl-N-methylpyridine-3-sulfonamide]
< 0.01	< 0.01	CN(C1CC1)S(=O)(=O)c1ccc(-c2cnc(N)c(-c3ccc4c(c3)NCCNC4=O)c2)cc1 [4-(6-amino-5-(5-oxo-2,3,4,5-tetrahydro-1H-benzo[e][1,4]diazepin-8-yl)pyridin-3-yl)-N-cyclopropyl-N-methylbenzenesulfonamide]
< 0.01	< 0.01	CN(C1CC1)S(=O)(=O)c1ccc(-c2cnc(N)c(-c3ccc4c(O)ncc(Br)c4c3)n2)cc1 [4-(5-amino-6-(4-bromo-1-hydroxyisoquinolin-6-yl)pyrazin-2-yl)-N-cyclopropyl-N-methylbenzenesulfonamide]
< 0.15	< 0.05	CCNS(=O)(=O)c1ccc(-c2cnc(N)c(C(=O)NC3CCCCC3)n2)cc1 [3-amino-N-cyclohexyl-6-(4-(N-ethylsulfamoyl)phenyl)pyrazine-2-carboxamide]
< 0.15	< 0.05	N#CCOc1ccc(-c2cnc(N)c(-c3ccc4c(c3)CCNC4=O)n2)cc1 [2-(4-(5-amino-6-(1-oxo-1,2,3,4-tetrahydroisoquinolin-6-yl)pyrazin-2-yl)phenoxy)acetonitrile]
< 0.05	< 0.01	CCN(C)S(=O)(=O)c1ccc(-c2cnc(N)c(-c3ccc4c(c3)CCCNC4=O)n2)cc1 [4-(5-amino-6-(1-oxo-2,3,4,5-tetrahydro-1H-benzo[c]azepin-7-yl)pyrazin-2-yl)-N-ethyl-N-methylbenzenesulfonamide]
< 0.01	< 0.01	C[C@H]1CNc2cc(-c3cc(-c4ccc(S(=O)(=O)NC5CC5)cc4)cnc3N)ccc2C(=O)N1 [(S)-4-(6-amino-5-(3-methyl-5-oxo-2,3,4,5-tetrahydro-1H-benzo[e][1,4]diazepin-8-yl)pyridin-3-yl)-N-cyclopropylbenzenesulfonamide]
< 0.05	< 0.05	N#CC1(c2ccc(-c3cnc(N)c(-c4ccc5c(c4)CCNC5=O)c3)cc2)CC1 [1-(4-(6-amino-5-(1-oxo-1,2,3,4-tetrahydroisoquinolin-6-yl)pyridin-3-yl)phenyl)cyclopropanecarbonitrile]
< 0.01	< 0.01	CN(C1CC1)S(=O)(=O)c1ccc(-c2cnc(N)c(-c3ccc4c(c3)CCCNC4=O)n2)cc1 [4-(5-amino-6-(1-oxo-2,3,4,5-tetrahydro-1H-benzo[c]azepin-7-yl)pyrazin-2-yl)-N-cyclopropyl-N-methylbenzenesulfonamide]
< 0.15	< 0.05	COC(=O)CN(C)S(=O)(=O)c1ccc(-c2cnc(N)c(-c3ccc4c(c3)CCNC4=O)c2)cc1 [methyl 2-(4-(6-amino-5-(1-oxo-1,2,3,4-tetrahydroisoquinolin-6-yl)pyridin-3-yl)-N-methylphenylsulfonamido)acetate]
< 0.05	< 0.01	N#CC1(c2ccc(-c3cnc(N)c(-c4ccc5c(c4)C4(CC4)NC5=O)n3)cc2)CCOCC1 [4-(4-(5-amino-6-(3′-oxospiro[cyclopropane-1,1′-isoindolin]-6′-yl)pyrazin-2-yl)phenyl)tetrahydro-2H-pyran-4-carbonitrile]
< 0.01	< 0.01	CNC1(c2ccc(-c3cnc(N)c(-c4ccc5c(c4)CCNC5=O)n3)cc2)CC1 [6-(3-amino-6-(4-(1-(methylamino)cyclopropyl)phenyl)pyrazin-2-yl)-3,4-dihydroisoquinolin-1(2H)-one]
–	< 0.15	CCN(CC)S(=O)(=O)c1ccc(-c2cnc(N)c(-c3ccc4c(=O)[nH]oc4c3)c2)cc1 [4-(6-amino-5-(3-oxo-2,3-dihydrobenzo[d]isoxazol-6-yl)pyridin-3-yl)-N,N-diethylbenzenesulfonamide]
< 0.01	< 0.01	CCNS(=O)(=O)c1ccc(-c2cnc(N)c(-c3ccc4c(c3)CCNC4=O)n2)cc1 [4-(5-amino-6-(1-oxo-1,2,3,4-tetrahydroisoquinolin-6-yl)pyrazin-2-yl)-N-ethylbenzenesulfonamide]
< 0.05	< 0.01	CN1Cc2cc(-c3nc(-c4ccc(S(=O)(=O)N(C)C5CC5)cc4)cnc3N)ccc2C(=O)N1 [4-(5-amino-6-(3-methyl-1-oxo-1,2,3,4-tetrahydrophthalazin-6-yl)pyrazin-2-yl)-N-cyclopropyl-N-methylbenzenesulfonamide]
